According to patent publication US11497212B2, “Substituted thiophenyl uracils, salts thereof and the use thereof as herbicidal agents” (Syngenta Crop Protection AG, priority 2017, dated 2022):

Experiments:
Assay type in all cases: in vivo
Amaranthus retroflexus = test: Herbicidal action post-emergence (greenhouse pot trial); details: application rate 20 g/ha, scored visually after about 3 weeks vs untreated controls
Protocol: (§1) Seeds of mono- and dicotyledonous weed plants and crop plants are laid out in sandy loam soil in plastic or wood-fiber pots, covered with earth and grown under controlled growth conditions in a greenhouse. 2 to 3 weeks after sowing, the trial plants are treated at the one-leaf stage. The compounds of the invention formulated in the form of wettable powders (WP) or emulsion concentrates (EC) were then sprayed onto the green parts of the plant as an aqueous suspension or emulsion with addition of 0.5% additive at a water application rate equivalent to 600 L/ha. After the trial plants had stood for about 3 weeks in the greenhouse, under optimal growth conditions, the effect of the preparations was scored visually by comparison with untreated controls. For example, 100% efficacy=plants have died, 0% efficacy=like control plants. Tables A1 to A15 below show the efficacies of selected compounds of the general formula (I) according to tables I.1 to I.60 on various harmful plants and an application rate corresponding to 80 g/ha or lower that were obtained by the aforementioned trial method.

Polygonum convolvulus = test: as above; details: application rate 20 g/ha, scored visually after about 3 weeks vs untreated controls
Protocol: as §1

Veronica persica = test: as above; details: application rate 20 g/ha
Protocol: as §1

Pharbitis purpurea = test: as above; details: application rate 20 g/ha
Protocol: as §1

Abutilon theophrasti = test: as above; details: application rate 20 g/ha, scored visually after about 3 weeks vs untreated controls
Protocol: as §1

Stellaria media = test: as above; details: application rate 20 g/ha, scored visually after about 3 weeks vs untreated controls
Protocol: as §1

Matricaria inodora = test: as above; details: application rate 20 g/ha, scored visually after about 3 weeks vs untreated controls
Protocol: as §1

Echinochloa crus-galli = test: as above; details: application rate 20 g/ha, scored visually after about 3 weeks vs untreated controls
Protocol: as §1

Digitaria sanguinalis = test: as above; details: application rate 20 g/ha
Protocol: as §1

Viola tricolor = test: as above; details: application rate 20 g/ha
Protocol: as §1

Triticum aestivum = test: Crop compatibility post-emergence (greenhouse pot trial)
Protocol: as §1, with “plants.” for “plants. Tables A1 to A15 below show the efficacies of selected compounds of the general formula (I) according to tables I.1 to I.60 on various harmful plants and an application rate corresponding to 80 g/ha or lower that were obtained by the aforementioned trial method.”
(§2) Crop plant compatibilities were also scored correspondingly.
(§3) The effects observed are reported here on selected crop plants by comparison with the untreated controls (values in %).

Setaria viridis = test: Herbicidal action post-emergence (greenhouse pot trial); details: application rate 20 g/ha, scored visually after about 3 weeks vs untreated controls
Protocol: as §1

Oryza sativa = test: Crop compatibility post-emergence (greenhouse pot trial); details: application rate 5 g/ha
Protocol: as §1, with “plants.” for “plants. Tables A1 to A15 below show the efficacies of selected compounds of the general formula (I) according to tables I.1 to I.60 on various harmful plants and an application rate corresponding to 80 g/ha or lower that were obtained by the aforementioned trial method.”
as §2, §3

Row | SMILES | Amaranthus retroflexus (Efficacy in %) (Amaranthus retroflexus) | Polygonum convolvulus (Efficacy in %) (Polygonum convolvulus) | Veronica persica (Efficacy in %) (Veronica persica) | Pharbitis purpurea (Efficacy in %) (Pharbitis purpurea) | Abutilon theophrasti (Efficacy in %) (Abutilon theophrasti) | Stellaria media (Efficacy in %) (Stellaria media) | Matricaria inodora (Efficacy in %) (Matricaria inodora) | Echinochloa crus-galli (Efficacy in %) (Echinochloa crus-galli) | Digitaria sanguinalis (Efficacy in %) (Digitaria sanguinalis) | Viola tricolor (Efficacy in %) (Viola tricolor) | Triticum aestivum (Efficacy in %) (Triticum aestivum; application rate 5 g/ha) | Triticum aestivum (Efficacy in %) (Triticum aestivum; application rate 20 g/ha) | Setaria viridis (Efficacy in %) (Setaria viridis) | Oryza sativa (Efficacy in %) (Oryza sativa)
1 | Cn1c(C(F)(F)F)cc(=O)n(-c2cc(SCC(C)(C)C(=O)OCC3CCCCO3)c(Cl)cc2F)c1=O (centres unmarked) [I.48-91] | 100% | 100% | 100% | 100% | 100% | 100% | 100% | 100% | 100% | 100% | 20% |  |  | 
2 | Cn1c(C(F)(F)F)cc(=O)n(-c2cc(SCC(C)(C)C(=O)OCC3CCCS3)c(Cl)cc2F)c1=O (centres unmarked) [I.48-81] | 100% | 100% | 100% | 100% | 100% | 100% | 100% | 90% | 100% | 100% |  | 20% |  | 
3 | Cc1c(C(F)(F)F)n(C)c(=O)n(-c2cc(SCC(C)(C)C(=O)OCC3CCCO3)c(Cl)cc2F)c1=O (centres unmarked) [I.54-71] | 100% | 100% | 100% | 100% | 100% | 80% |  | 80% | 80% | 100% | 20% |  | 100% | 0%
4 | CC(Sc1cc(-n2c(=O)cc(C(F)(F)F)n(C)c2=O)c(F)cc1Cl)C(=O)OCCOCc1ccccc1 (centres unmarked) [I.1-6] | 100% | 100% | 100% | 100% | 100% | 90% | 100% | 90% | 100% | 100% |  |  | 100% | 0%
5 | CCC(C)C(Sc1cc(-n2c(=O)cc(C(F)(F)F)n(C)c2=O)c(F)cc1Cl)C(=O)OCC1CCOC1 (centres unmarked) [I.5-72] | 100% | 90% | 100% | 100% | 100% |  | 90% | 90% | 100% | 100% |  | 20% | 80% | 
6 | CC(C)C(Sc1cc(-n2c(=O)cc(C(F)(F)F)n(C)c2=O)c(F)cc1Cl)C(=O)OCC1CCOC1 (centres unmarked) [I.6-72] | 100% | 100% | 100% | 100% | 100% | 90% | 100% | 80% | 100% | 100% | 20% |  | 90% | 
7 | CC(Sc1cc(-n2c(=O)cc(C(F)(F)F)n(C)c2=O)c(F)cc1Cl)C(=O)OC1CCSC1 (centres unmarked) [I.1-123] | 100% | 100% | 100% | 100% | 100% | 100% | 100% | 100% | 80% | 100% |  | 20% | 100% | 
8 | CCC(Sc1cc(-n2c(=O)cc(C(F)(F)F)n(C)c2=O)c(F)cc1Cl)C(=O)OCC1CCCS1 (centres unmarked) [I.2-81] | 100% | 100% | 100% | 100% | 100% | 100% | 100% | 100% | 100% | 100% |  | 20% | 100% | 
9 | CCC(C)C(Sc1cc(-n2c(=O)cc(C(F)(F)F)n(C)c2=O)c(F)cc1Cl)C(=O)OCC1CCCO1 (centres unmarked) [I.5-71] | 100% | 100% | 100% | 100% | 100% | 80% | 100% | 90% | 100% | 100% |  | 10% | 90% | 
10 | CC(C)=C(Sc1cc(-n2c(=O)cc(C(F)(F)F)n(C)c2=O)c(F)cc1Cl)C(=O)OCC1CCOC1 (centres unmarked) [I.42-72] | 100% | 100% | 100% | 100% | 100% | 90% | 100% | 90% | 100% | 100% |  | 20% | 100% | 
11 | CC(Sc1cc(-n2c(=O)cc(C(F)(F)F)n(C)c2=O)c(F)cc1Cl)C(=O)OCCOC(F)(F)F (centres unmarked) [I.1-41] | 100% | 100% | 100% | 100% | 100% |  | 90% | 100% | 100% | 100% |  | 20% | 100% | 
